Results published in paper PMC11951252 (RSC Advances, 2025).
Several values for one entry are separate records, joined by “and”; a condition that tells them apart may be missing. Equal entries are not always repeated.

Columns and labels:
[1] = tested on: HCT-116; assay: Antiproliferative MTT assay, HCT-116; type: cell-based; conditions: Homo sapiens, HCT-116, read-out: Antiproliferative activity IC50 ± SEM, HCT-116
[2] = tested on: MCF-7; assay: Antiproliferative MTT assay, MCF-7; type: cell-based, human; conditions: Homo sapiens, MCF7, read-out: Antiproliferative activity IC50 ± SEM, MCF-7
[3] = tested on: MDAMB-231; assay: Antiproliferative MTT assay, MDAMB-231; type: cell-based, human; conditions: MDAMB-231 breast cancer cell line
[4] = tested on: PC-3; assay: Antiproliferative MTT assay, PC-3; type: cell-based; conditions: Homo sapiens, PC-3, read-out: Antiproliferative activity IC50 ± SEM, PC-3
[5] = tested on: four human cancer cell lines (HCT-116, PC-3, MCF-7, MDAMB-231); assay: Antiproliferative MTT assay, average over four cancer cell lines; type: cell-based; conditions: Homo sapiens, average IC50 of the four cancer cell lines
[6] = target: EGFR-TK (Homo sapiens, UniProt P00533); assay: EGFR inhibitory assay; type: biochemical; conditions: for IC50: EGFR IC50 ± SEM
[7] = target: HER2-TK (Homo sapiens, UniProt P04626); assay: HER2 inhibitory assay; type: biochemical
[8] = tested on: MDA-MB 231 cancer cells; assay: Cell cycle analysis; type: cell-based, human
[9] = tested on: MDA-MB 231 cells; assay: Apoptosis induction analysis; type: cell-based, human
[10] = tested on: BRAF^V600E; conditions: read-out: BRAF^V600E IC50; cited from earlier work

Sequence of EGFR-TK (P00533 669-1210): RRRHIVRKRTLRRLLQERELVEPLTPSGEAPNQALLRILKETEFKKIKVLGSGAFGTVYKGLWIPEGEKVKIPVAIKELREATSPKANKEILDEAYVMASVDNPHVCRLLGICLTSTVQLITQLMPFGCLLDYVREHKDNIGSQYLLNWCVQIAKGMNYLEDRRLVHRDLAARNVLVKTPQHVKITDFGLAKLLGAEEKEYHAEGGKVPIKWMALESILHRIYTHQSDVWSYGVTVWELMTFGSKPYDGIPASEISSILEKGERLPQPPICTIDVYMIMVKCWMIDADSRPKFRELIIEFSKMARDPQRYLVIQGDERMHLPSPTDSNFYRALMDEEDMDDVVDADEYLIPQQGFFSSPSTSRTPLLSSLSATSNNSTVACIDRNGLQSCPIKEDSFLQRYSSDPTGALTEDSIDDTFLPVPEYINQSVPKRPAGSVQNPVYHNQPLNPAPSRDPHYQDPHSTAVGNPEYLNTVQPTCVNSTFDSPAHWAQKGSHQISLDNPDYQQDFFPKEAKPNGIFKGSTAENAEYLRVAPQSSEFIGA
Sequence of HER2-TK (P04626 676-1255 limits assumed): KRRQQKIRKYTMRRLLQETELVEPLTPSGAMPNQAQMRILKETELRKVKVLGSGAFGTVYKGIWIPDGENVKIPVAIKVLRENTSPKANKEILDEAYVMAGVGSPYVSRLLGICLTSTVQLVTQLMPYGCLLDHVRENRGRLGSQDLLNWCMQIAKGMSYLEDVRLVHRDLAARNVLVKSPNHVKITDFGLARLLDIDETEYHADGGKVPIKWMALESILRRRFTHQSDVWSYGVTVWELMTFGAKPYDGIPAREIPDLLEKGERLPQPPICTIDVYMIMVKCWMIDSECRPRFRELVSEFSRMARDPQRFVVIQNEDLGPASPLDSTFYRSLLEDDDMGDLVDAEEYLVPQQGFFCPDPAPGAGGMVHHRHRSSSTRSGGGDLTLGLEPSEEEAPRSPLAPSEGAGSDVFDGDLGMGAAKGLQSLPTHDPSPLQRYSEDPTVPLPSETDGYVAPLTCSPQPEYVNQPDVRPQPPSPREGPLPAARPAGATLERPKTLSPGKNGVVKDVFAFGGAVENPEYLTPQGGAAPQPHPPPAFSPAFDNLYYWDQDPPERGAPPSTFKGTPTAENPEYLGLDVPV

SMILES | IC50 [1] [µM] | IC50 [2] [µM] | times more potent than sorafenib [3] [times] | IC50 [4] [µM] | GI50 [5] [µM] | times less effective as EGFR inhibitors than erlotinib [6] | IC50 [6] | IC50 ([7]; HER2 IC50 ± SEM, Table 3) [µM] | IC50 ([7]; HER2 IC50, as printed in text) [µM] | Cell cycle analysis, Comment ([8]; MDA-MB 231, 24 h, 25 μM) | DNA content % G0–G1 ([8]; MDA-MB 231, 24 h, 25 μM) [%] | DNA content % G2/M ([8]; MDA-MB 231, 24 h, 25 μM) [%] | DNA content % S ([8]; MDA-MB 231, 24 h, 25 μM) [%] | percentage of pre-G1 apoptosis ([8]; MDA-MB 231, 24 h incubation) [%] | early apoptosis enhanced more than late apoptosis, fold ([9]; MDA-MB 231) [fold] | Apoptosis Early ([9]; MDA-MB cancer cells, 24 h) | Apoptosis Late ([9]; MDA-MB cancer cells, 24 h) | Apoptosis Total ([9]; MDA-MB cancer cells, 24 h) | Necrosis ([9]; MDA-MB cancer cells, 24 h) | IC50 [10] [µM]
O=C(CN1CCN(c2ccc(Cl)cc2)CC1)Nc1ccc(C(=O)C=Cc2ccco2)cc1 [4n, 2-(4-(4-Chlorophenyl)piperazin-1-yl)-N-(4-(3-(furan-2-yl)acryloyl)phenyl)acetamide] | 8.67 ± 0.9 | 6.94 ± 0.4 | 1.6 | 9.08 ± 0.8 | 7 | at least 10 times | 0.799 µM and 1.78 µM | 0.505 |  |  |  |  |  |  |  |  |  |  |  | 
COc1ccc(N2CCN(CC(=O)Nc3ccc(C4=NN(C(C)=O)C(c5cc(OC)c(OC)c(OC)c5)C4)cc3)CC2)cc1 (stereo not drawn) [5d, N-(4-(1-Acetyl-5-(3,4,5-trimethoxyphenyl)-4,5-dihydro-1H-pyrazol-3-yl)phenyl)-2-(4-(4-methoxyphenyl)piperazin-1-yl)acetamide] | 6.47 ± 0.4 | 5.05 ± 0.4 | 2.7 | 13 ± 1 | 7 |  | 0.209 µM | 0.101 | 0.061 | Cell cycle arrest @ G1 | 78.53 | 3.36 | 18.11 | 78.53 | 5 | 17.13 | 8.89 | 29.59 | 3.57 | 
